{"source": "patent US11420961B2", "about": "“Heterocyclic compounds” (Hoffmann-La Roche Inc., priority 2017, dated 2022)"}
{"molecular_target": "T1, MAGL (Homo sapiens, UniProt Q99685)", "T1 sequence (Q99685 1-303)": "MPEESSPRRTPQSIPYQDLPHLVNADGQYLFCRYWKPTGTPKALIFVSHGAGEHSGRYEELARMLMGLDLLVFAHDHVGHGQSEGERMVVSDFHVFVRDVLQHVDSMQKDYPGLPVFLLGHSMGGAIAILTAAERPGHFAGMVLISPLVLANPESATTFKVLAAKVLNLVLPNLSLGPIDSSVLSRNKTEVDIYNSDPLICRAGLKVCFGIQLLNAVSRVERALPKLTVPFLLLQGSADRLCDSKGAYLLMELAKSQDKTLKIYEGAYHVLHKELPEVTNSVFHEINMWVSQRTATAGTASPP", "assay": "2-AG assay: MAGL inhibitory activity by hydrolysis of 2-arachidonoylglycerol to arachidonic acid, mass spectrometry", "type": "biochemical", "settings": "2-AG assay (values marked [a])", "experimental": "Alternatively, compounds were profiled for MAGL inhibitory activity by determining the enzymatic activity by following the hydrolysis of the natural substrate, 2-arachidonoylglycerol, resulting in arachidonic acid, which can be followed by mass spectrometry. This assay is hereinafter abbreviated “2-AG assay”.\nThe 2-AG assay was carried out in 384 well assay plates (PP, Greiner Cat #784201) in a total volume of 20 μL. Compound dilutions were made in 100% DMSO (VWR Chemicals 23500.297) in a polypropylene plate in 3-fold dilution steps to give a final concentration range in the assay from 12.5 μM to […]. 0.25 μL compound dilutions (100% DMSO) were added to 9 μL MAGL in assay buffer (50 mM TRIS (GIBCO, 15567-027), 1 mM EDTA (Fluka, 03690-100 ml), 0.01% (v/v) Tween. After shaking, the plate was incubated for 15 min at RT. To start the reaction, 10 μL 2-arachidonoylglycerol in assay buffer was added. The final concentrations in the assay was […] and 8 μM 2-arachidonoylglyerol. After shaking and 30 min incubation at RT, the reaction was quenched by the addition of 40 μL of acetonitrile containing 4 μM of d8-arachidonic acid. The amount of arachidonic acid was traced by an online SPE system (Agilent Rapidfire) coupled to a triple quadrupole mass spectrometer (Agilent 6460). A C18 SPE cartridge (G9205A) was used in an acetonitrile/water liquid setup. The mass spectrometer was operated in negative electrospray mode following the mass transitions 303.1→259.1 for arachidonic acid and 311.1→267.0 for d8-arachidonic acid. The activity of the compounds was calculated based on the ratio of intensities [arachidonic acid/d8-arachidonic acid].", "units": {"IC50": "µM"}}
{"compound": "Cn1ccc(C(c2ccccc2)C2CCN(C(=O)c3ccc4c(c3)NC(=O)CO4)CC2)cc1=O", "note": "(single isomer, unassigned) [Example 143, 6-[4-[(R or S)-(1-Methyl-2-oxo-4-pyridyl)-phenyl-methyl]piperidine-1-carbonyl]-4H-1,4-benzoxazin-3-one]", "IC50": 0.0793}
{"compound": "Cn1ccc(C(c2ccccc2)C2CCN(C(=O)c3ccc4c(c3)NC(=O)CO4)CC2)cc1=O", "note": "(single isomer, unassigned) [Example 142, 6-[4-[(S or R)-(1-Methyl-2-oxo-4-pyridyl)-phenyl-methyl]piperidine-1-carbonyl]-4H-1,4-benzoxazin-3-one]", "IC50": 0.00066}
{"compound": "O=C1COc2ccc(C(=O)N3CC(C(c4ccccc4)c4ccccc4)C3)cc2N1", "note": "[Example 124, 6-(3-Benzhydrylazetidine-1-carbonyl)-4H-1,4-benzoxazin-3-one]", "IC50": 0.258}
{"compound": "O=C1COc2ccc(C(=O)N3CC(C(c4ccccc4)c4ccc(C(F)(F)F)cc4)C3)cc2N1", "note": "(centres unmarked) [Example 130, 6-[3-[Phenyl-[4-(trifluoromethyl)phenyl]methyl]azetidine-1-carbonyl]-4H-1,4-benzoxazin-3-one]", "IC50": 0.0853}
{"compound": "COc1cccc(C(c2ccccc2)C2CN(C(=O)c3ccc4c(c3)NC(=O)CO4)C2)c1", "note": "(centres unmarked) [Example 131, 6-[3-[(3-Methoxyphenyl)-phenyl-methyl]azetidine-1-carbonyl]-4H-1,4-benzoxazin-3-one]", "IC50": 0.182}
